Data from DBAASP.
In brackets after ≈: the same amount, converted by molar mass.

Tests used:
Test in all cases: ≥ marks a high value that may be exact or a test limit, other limits are often not marked, values filed in µg/mL are converted to µM
[1] = tested on: Klebsiella pneumoniae ATCC 10031
[2] = tested on: Escherichia coli ATCC 11219
[3] = tested on: Pseudomonas aeruginosa ATCC 13388
[4] = tested on: Salmonella enterica subsp. enterica serovar Typhimurium ATCC 14028
[5] = tested on: Staphylococcus aureus ATCC 6538
[6] = tested on: Staphylococcus aureus ATCC 33591
[7] = tested on: Staphylococcus epidermidis ATCC 35984
[8] = tested on: Staphylococcus aureus ATCC 25923
[9] = tested on: Pseudomonas aeruginosa ATCC 27853
[10] = tested on: Enterococcus faecalis 981
[11] = tested on: Nocardia asteroides 201118
[12] = tested on: Klebsiella pneumoniae 08040724
[13] = tested on: Enterococcus faecium 091299
[14] = tested on: Psychrobacter faecalis X29
[15] = tested on: Enterobacter cloacae CGMCC 1.57
[16] = tested on: Bacillus subtilis ATCC 6051
[17] = tested on: Escherichia coli NEB5alpha
[18] = tested on: Staphylococcus aureus 22401
Bacillus subtilis A47 = tested on: Bacillus subtilis A47
Escherichia coli 44102 = tested on: Escherichia coli 44102
Escherichia coli AS1.349 = tested on: Escherichia coli AS1.349
Bacillus cereus AS1.126 = tested on: Bacillus cereus AS1.126
[19] = tested on: Proteus mirabilis CICC 22931
[20] = tested on: Enterobacter cloacae CGMCC 1.58
[21] = tested on: Enterococcus faecalis CGMCC 1.595
[22] = tested on: Staphylococcus aureus AS1.72
[23] = tested on: Enterococcus faecium CGMCC 1.2334
[24] = tested on: Staphylococcus epidermidis CICC 23664
[25] = tested on: Klebsiella pneumoniae subsp. pneumoniae CGMCC 1.176
[26] = tested on: Pseudomonas aeruginosa CGMCC 1.860

CC[C@H](C)[C@H](NC(=O)CN)C(=O)N[C@@H](Cc1cnc[nH]1)C(=O)N[C@@H](CC(=O)O)C(=O)N[C@H](C(=O)N[C@@H](CC(C)C)C(=O)N[C@@H](CCCCN)C(=O)N[C@@H](Cc1ccc(O)cc1)C(=O)NCC(=O)N[C@@H](CCCCN)C(=O)N1CCC[C@H]1C(=O)N[C@@H](C)C(N)=O)[C@@H](C)CC [GIHDILKYGKPA]
MIC [1]: 30 µM (≈ 39.3 µg/mL)
MIC [2]: ≥ 50 µM
MIC [3]: ≥ 50 µM
MIC [4]: > 50 µM
MIC [5]: > 50 µM

CC[C@H](C)[C@H](NC(=O)[C@H](CCCCN)NC(=O)[C@@H](NC(=O)[C@H](Cc1ccccc1)NC(=O)[C@H](C)NC(=O)[C@H](CCCCN)NC(=O)CNC(=O)[C@H](Cc1ccccc1)NC(=O)[C@H](CCCCN)NC(=O)[C@H](CCCCN)NC(=O)[C@H](C)NC(=O)[C@H](CCCCN)NC(=O)[C@H](CCCCN)NC(=O)[C@H](CC(C)C)NC(=O)[C@H](Cc1ccccc1)NC(=O)[C@H](CCCCN)NC(=O)CN)C(C)C)C(N)=O [GKFLKKAKKFGKAFVKI]
MIC [6]: ≥ 264 µM
MIC [7]: 5.84 µM (≈ 11.3 µg/mL)
MIC [8]: 132 µM (≈ 256 µg/mL)
MIC [9]: 0.73 µM (≈ 1.41 µg/mL)

CC[C@H](C)[C@@H]1NC(=O)[C@H](CCCCN)NC(=O)[C@@H](NC(=O)[C@H](CCCCN)NC(=O)[C@H](CC(C)C)NC(=O)[C@H](CCCCN)NC(=O)[C@H](CC(=O)O)NC(=O)[C@H](CC(C)C)NC(=O)[C@H](CC(C)C)NC(=O)[C@@H](NC(=O)[C@@H](NC(=O)[C@H](C)NC(=O)[C@@H](NC(=O)[C@H](CC(N)=O)NC(=O)[C@H](CCCCN)NC(=O)[C@H](Cc2ccccc2)NC(=O)[C@@H](NC(=O)[C@H](CC(N)=O)NC(=O)[C@H](CCCCN)NC(=O)[C@H](C)NC(=O)[C@@H](NC(=O)[C@H](CC(=O)O)NC(=O)[C@H](CCSC)NC(=O)[C@H](Cc2ccccc2)NC(=O)CN)[C@@H](C)O)C(C)C)C(C)C)C(C)C)[C@@H](C)O)CSSC[C@@H](C(=O)O)NC(=O)CNC(=O)CNC(=O)[C@H](C)NC1=O [GFMDTAKNVFKNVAVTLLDKLKCKIAGGC]
MIC [10]: ≥ 100 µM
MIC [11]: 6.3 µM (≈ 19.4 µg/mL)
MIC [12]: ≥ 100 µM
MIC [8]: 50 µM (≈ 154 µg/mL)
MIC [13]: 25 µM (≈ 77.1 µg/mL)
MIC [14]: 3.1 µM (≈ 9.56 µg/mL)
MIC [15]: ≥ 50 µM

CC[C@H](C)[C@H](NC(=O)[C@@H](N)Cc1cnc[nH]1)C(=O)N[C@@H](CCC(N)=O)C(=O)N[C@@H](CCCCN)C(=O)N[C@@H](CCC(=O)O)C(=O)N[C@@H](CC(=O)O)C(=O)N[C@H](C(=O)N1CCC[C@H]1C(=O)N[C@@H](CO)C(=O)N[C@@H](CCC(=O)O)C(=O)N[C@@H](CCCN=C(N)N)C(=O)N[C@@H](Cc1ccc(O)cc1)C(=O)N[C@@H](CC(C)C)C(=O)NCC(=O)N[C@@H](Cc1ccc(O)cc1)C(=O)N[C@@H](CC(C)C)C(=O)N[C@@H](CCC(=O)O)C(=O)N[C@@H](CCC(N)=O)C(=O)N[C@@H](CC(C)C)C(=O)N[C@@H](CC(C)C)C(=O)N[C@@H](CCCN=C(N)N)C(=O)N[C@@H](CC(C)C)C(=O)N[C@@H](CCCCN)C(=O)N[C@@H](CCCCN)C(=O)N[C@@H](Cc1ccc(O)cc1)C(=O)N[C@@H](CCCCN)C(=O)O)C(C)C [HIQKEDVPSERYLGYLEQLLRLKKYK]
MIC [16]: ≥ 42.3 µM
MIC [17]: ≥ 169 µM

CC(C)C[C@H](NC(=O)CNC(=O)[C@H](Cc1ccccc1)NC(=O)[C@H](CC(C)C)NC(=O)[C@H](CCCN=C(N)N)NC(=O)[C@H](CC(C)C)NC(=O)[C@H](Cc1c[nH]c2ccccc12)NC(=O)CNC(=O)[C@H](CO)NC(=O)[C@H](CCCN=C(N)N)NC(=O)[C@H](CCCN=C(N)N)NC(=O)[C@H](CCC(=O)O)NC(=O)[C@H](CC(C)C)NC(=O)[C@H](C)NC(=O)[C@@H](N)CC(C)C)C(=O)N[C@@H](CCCCN)C(=O)N1CCC[C@H]1C(=O)N[C@@H](CCCN=C(N)N)C(=O)N[C@@H](CCCN=C(N)N)C(=O)N[C@@H](CCCCN)C(=O)N[C@@H](Cc1cnc[nH]1)C(=O)O [LALERRSGWLRLFGLKPRRKH]
MIC [18]: 12.5 µM (≈ 32.4 µg/mL)
MIC (Bacillus subtilis A47): ≥ 50 µM
MIC (Escherichia coli 44102): ≥ 50 µM

CC[C@H](C)[C@H](N)C(=O)N[C@@H](CCCCN)C(=O)N[C@@H](CCCCN)C(=O)N[C@H](C(=O)N[C@@H](CC(C)C)C(=O)N[C@@H](CO)C(=O)N[C@@H](CCCCN)C(=O)N[C@H](C(=O)N[C@@H](CCCCN)C(=O)N[C@@H](CCCCN)C(=O)N[C@@H](Cc1c[nH]c2ccccc12)C(=O)N[C@@H](Cc1c[nH]c2ccccc12)C(=O)N[C@@H](CCCCN)C(=O)O)[C@@H](C)CC)[C@@H](C)CC [IKKILSKIKKWWK]
MIC (Escherichia coli AS1.349): 10 µM (≈ 17 µg/mL)
MIC (Bacillus cereus AS1.126): 20 µM (≈ 34 µg/mL)
MIC [19]: ≥ 100 µM
MIC [20]: ≥ 100 µM
MIC [21]: 10 µM (≈ 17 µg/mL)
MIC [22]: 12.5 µM (≈ 21.2 µg/mL)
MIC [23]: 12.5 µM (≈ 21.2 µg/mL)
MIC [24]: 6.25 µM (≈ 10.6 µg/mL)
MIC [25]: ≥ 100 µM
MIC [26]: 10 µM (≈ 17 µg/mL)

CC[C@H](C)[C@H](NC(=O)[C@H](CO)NC(=O)[C@H](CCC(=O)O)NC(=O)[C@H](CCCCN)NC(=O)[C@@H](NC(=O)[C@@H](N)CCCCN)C(C)C)C(=O)N[C@H](C(=O)N[C@@H](CCCN=C(N)N)C(=O)N[C@@H](CCCCN)C(=O)N[C@@H](CC(C)C)C(=O)O)[C@@H](C)CC [KVKESIIRKL]
MIC [16]: ≥ 500 µM
MIC [17]: ≥ 1000 µM

CC[C@H](C)[C@H](NC(=O)[C@H](CCCCN)NC(=O)[C@@H](NC(=O)[C@H](Cc1ccccc1)NC(=O)[C@H](C)NC(=O)[C@H](CCCCN)NC(=O)CNC(=O)[C@H](Cc1ccccc1)NC(=O)[C@@H](N)CCCCN)C(C)C)C(=O)N[C@@H](CC(C)C)C(=O)N[C@@H](CCCCN)C(=O)N[C@@H](CCCCN)C(N)=O [KFGKAFVKILKK]
MIC [6]: ≥ 257 µM
MIC [7]: ≥ 64.3 µM
MIC [8]: 257 µM (≈ 362 µg/mL)
MIC [9]: 16.1 µM (≈ 22.6 µg/mL)

CC[C@H](C)[C@H](NC(=O)CN)C(=O)N[C@@H](Cc1cnc[nH]1)C(=O)N[C@@H](CC(=O)O)C(=O)N[C@H](C(=O)N[C@@H](CC(C)C)C(=O)N[C@@H](C)C(=O)N[C@@H](Cc1ccc(O)cc1)C(=O)NCC(=O)N[C@@H](CCCCN)C(=O)N1CCC[C@H]1C(=O)N[C@@H](CO)C(N)=O)[C@@H](C)CC [GIHDILAYGKPS]
MIC [1]: 20 µM (≈ 25.4 µg/mL)
MIC [2]: 15 µM (≈ 19 µg/mL)
MIC [3]: 15 µM (≈ 19 µg/mL)
MIC [4]: 15 µM (≈ 19 µg/mL)
MIC [5]: 10 µM (≈ 12.7 µg/mL)

CC[C@H](C)[C@H](N)C(=O)N[C@@H](CCCCN)C(=O)N[C@@H](CCCCN)C(=O)N[C@H](C(=O)N[C@@H](Cc1c[nH]c2ccccc12)C(=O)N[C@@H](CO)C(=O)N[C@@H](CCCCN)C(=O)N[C@H](C(=O)N[C@@H](CCCCN)C(=O)N[C@@H](CCCCN)C(=O)N[C@@H](CC(C)C)C(=O)N[C@@H](Cc1c[nH]c2ccccc12)C(=O)N[C@@H](CCCCN)C(=O)O)[C@@H](C)CC)[C@@H](C)CC [IKKIWSKIKKLWK]
MIC (Escherichia coli AS1.349): 3.13 µM (≈ 5.32 µg/mL)
MIC (Bacillus cereus AS1.126): 25 µM (≈ 42.5 µg/mL)
MIC [19]: ≥ 100 µM
MIC [20]: ≥ 100 µM
MIC [21]: 2.5 µM (≈ 4.25 µg/mL)
MIC [22]: 2.5 µM (≈ 4.25 µg/mL)
MIC [23]: 10 µM (≈ 17 µg/mL)
MIC [24]: 5 µM (≈ 8.5 µg/mL)
MIC [25]: ≥ 100 µM
MIC [26]: 5 µM (≈ 8.5 µg/mL)
